Structures can show the parent of a compound that is named as a salt.
Key:
C57BL/KsJ db/db mouse = assay: Actions of lowering plasma glucose, insulin and triglyceride in vivo in db/db mice; details: for Reduction rate of plasma glucose / Reduction rate of plasma insulin / Reduction rate of plasma triglyceride: blood two hours after administration on 14th day; for Plasma glucose reducing action (ED25): oral once a day for 14 days, dose required for reduction of plasma glucose concentration by 25%, vehicle group as 100%
From the text: The compounds of the present invention and the aforementioned Compound A and pioglitazone hydrochloride each as a reference compound were subjected to the measurements of the actions of lowering plasma glucose, insulin, and triglyceride in vivo according to the following method (Metabolism, 48, pp34–40, 1999, Journal of Medicinal Chemistry, 44, pp2601–2611, 2001).
C57BL/KsJ db/db mouse (Journal of Clinical Investigation, 85, pp 962–967, 1990) was used as an experimental animal, which was developed in The Jackson Laboratory (USA) and is known as a model animal with obesity, hyperlipemia, hyperinsulinemia, and insulin resistance.
Bloods were collected from seven weeks old db/db mice from their orbital sinus by using heparin-treated capillary tubes. After centrifugation of the bloods, plasma was collected and then subjected to measurements of concentrations of plasma glucose, insulin, and triglyceride to divide the animals. From the next day of the day of blood collection, the administrations of the compounds were started. The compounds were orally administered once a day for 14 days. On the 14th day, blood was collected from orbital sinus two hours after the administration of the compounds. Plasma was collected, and subjected to measurements of concentrations of plasma glucose, insulin, and triglyceride.
The dose required for reduction of plasma glucose concentration by 25% (ED25) was obtained using the value of the vehicle administered group as 100% (Arznimittel-Forschung, 40, pp156–162, 1990).

PPAR γ = target: T1, PPAR γ (Homo sapiens, UniProt P37231); details: mode of action of thiazolidinedione type compounds; cited from earlier work
T1 sequence (P37231 1-505): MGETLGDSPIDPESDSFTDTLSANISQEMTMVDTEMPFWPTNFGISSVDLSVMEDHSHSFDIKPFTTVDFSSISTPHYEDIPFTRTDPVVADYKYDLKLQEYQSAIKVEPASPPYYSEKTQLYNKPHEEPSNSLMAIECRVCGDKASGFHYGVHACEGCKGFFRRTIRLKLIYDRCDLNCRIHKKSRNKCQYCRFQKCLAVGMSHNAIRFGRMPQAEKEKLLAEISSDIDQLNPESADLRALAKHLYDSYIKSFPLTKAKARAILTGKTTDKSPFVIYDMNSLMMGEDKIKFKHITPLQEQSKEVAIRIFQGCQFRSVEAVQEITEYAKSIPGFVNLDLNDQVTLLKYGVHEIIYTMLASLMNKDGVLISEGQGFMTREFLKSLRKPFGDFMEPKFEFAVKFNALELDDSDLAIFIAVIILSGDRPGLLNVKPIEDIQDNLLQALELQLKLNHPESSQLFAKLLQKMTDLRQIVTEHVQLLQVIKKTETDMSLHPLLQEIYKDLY

[1] = 3 mg/kg orally once a day for 14 days
[2] = 10 mg/kg orally once a day for 14 days
[3] = 30 mg/kg orally once a day for 14 days
[4] = 0.5 mg/kg orally once a day for 14 days, 0.5 mg/kg
[5] = 1.5 mg/kg orally once a day for 14 days, 1.5 mg/kg
[6] = 5 mg/kg orally once a day for 14 days, 5 mg/kg
[7] = 1 mg/kg orally once a day for 14 days

Row | SMILES | Reduction rate of plasma glucose (C57BL/KsJ db/db mouse; [1]) | Reduction rate of plasma insulin (C57BL/KsJ db/db mouse; [1]) | Reduction rate of plasma triglyceride (C57BL/KsJ db/db mouse; [1]) | Reduction rate of plasma glucose (C57BL/KsJ db/db mouse; [2]) | Reduction rate of plasma insulin (C57BL/KsJ db/db mouse; [2]) | Reduction rate of plasma triglyceride (C57BL/KsJ db/db mouse; [2]) | Reduction rate of plasma glucose (C57BL/KsJ db/db mouse; [3]) | Reduction rate of plasma insulin (C57BL/KsJ db/db mouse; [3]) | Reduction rate of plasma triglyceride (C57BL/KsJ db/db mouse; [3]) | Plasma glucose reducing action (ED25) (C57BL/KsJ db/db mouse) [mg/kg] | further results
1 | O=C(O)C(Cl)(Cl)CCCCCCCC(O)CCc1ccc(Cl)cc1 (stereo not shown) [Example 2(4), 2,2-dichloro-12-(4-chlorophenyl)-10-hydroxydodecanoic acid] | 44.4 ± 17.0 | −12.5 ± 58.1 | 53.2 ± 6.9 | 66.6 ± 4.1 | 39.1 ± 21.3 | 54.1 ± 5.5 | 75.2 ± 3.1 | 64.3 ± 10.1 | 55.7 ± 6.3 | 0.6 | Plasma glucose reducing action (ED25) (C57BL/KsJ db/db mouse; listed as Example 2 (4)): 0.6 mg/kg
2 | O=C(O)C(Cl)(Cl)CCCCCCCC(O)CCc1ccc(Cl)cc1 (single isomer, unassigned; (-)) [Example 5(5), (−)-2,2-dichloro-12-(4-chlorophenyl)-10-hydroxydodecanoic acid] | – | – | – | – | – | – | – | – | – | 1.7 | Reduction rate of plasma glucose (C57BL/KsJ db/db mouse; [4]): −10.3; Reduction rate of plasma insulin (C57BL/KsJ db/db mouse; [4]): 20.8 ± 32.0; Reduction rate of plasma triglyceride (C57BL/KsJ db/db mouse; [4]): 23.0 ± 13.8; Reduction rate of plasma glucose (C57BL/KsJ db/db mouse; [5]): 28.5 ± 10.7; Reduction rate of plasma insulin (C57BL/KsJ db/db mouse; [5]): 20.4 ± 38.0; Reduction rate of plasma triglyceride (C57BL/KsJ db/db mouse; [5]): 40.5 ± 15.3; Reduction rate of plasma glucose (C57BL/KsJ db/db mouse; [6]): 49.2 ± 9.6; Reduction rate of plasma insulin (C57BL/KsJ db/db mouse; [6]): 68.9 ± 13.2; Reduction rate of plasma triglyceride (C57BL/KsJ db/db mouse; [6]): 37.6 ± 11.3
3 | O=C(O)C(Cl)(Cl)CCCCCCCCCC(O)c1ccc(Cl)cc1 (stereo not shown) [Example 3(4), 2,2-dichloro-12-(4-chlorophenyl)-12-hydroxydodecanoic acid] | 29.3 ± 28.7 | −2.8 ± 46.6 | 23.2 ± 24.7 | 53.4 ± 14.7 | 39.0 ± 10.3 | 40.6 ± 8.9 | 74.5 ± 3.0 | 61.7 ± 18.5 | 25.8 ± 24.7 | 2.4 | –
4 | O=C(O)C(Cl)(Cl)CCCCCCCCC(O)Cc1ccc(Cl)cc1 (stereo not shown) [Example 4(4), 2,2-dichloro-12-(4-chlorophenyl)-11-hydroxydodecanoic acid] | 35.0 ± 21.2 | −19.8 ± 71.8 | 45.5 ± 13.9 | 65.2 ± 8.0 | 20.3 ± 24.9 | 58.8 ± 3.7 | 67.2 ± 6.8 | 51.1 ± 20.2 | 54.1 ± 6.6 | 1.1 | –
5 | O=C(O)C(Cl)(Cl)CCCCCCCCCCc1ccc(Cl)cc1 [Compound A] | 25.4 ± 17.7 | 7.4 ± 18.7 | 27.5 ± 17.5 | 65.3 ± 5.0 | 10.7 ± 61.6 | 54.6 ± 4.1 | – | – | – | 2.8 | Reduction rate of plasma glucose (C57BL/KsJ db/db mouse; [7]): −5.0 ± 19.5; Reduction rate of plasma insulin (C57BL/KsJ db/db mouse; [7]): 0.7 ± 77.6; Reduction rate of plasma triglyceride (C57BL/KsJ db/db mouse; [7]): 23.4 ± 15.3; PPAR γ activating action (PPAR γ): no PPAR γ activating action
6 | O=C(O)C(Cl)(Cl)CCCCCCCC(O)CCc1ccc(Cl)cc1 (single isomer, unassigned; (+)) [Example 5(4), (+)-2,2-dichloro-12-(4-chlorophenyl)-10-hydroxydodecanoic acid] | – | – | – | – | – | – | – | – | – | 0.5 | Reduction rate of plasma glucose (C57BL/KsJ db/db mouse; [4]): 20.7 ± 14.3; Reduction rate of plasma insulin (C57BL/KsJ db/db mouse; [4]): −22.0 ± 84.1; Reduction rate of plasma triglyceride (C57BL/KsJ db/db mouse; [4]): 42.0 ± 17.3; Reduction rate of plasma glucose (C57BL/KsJ db/db mouse; [5]): 40.6 ± 5.8; Reduction rate of plasma insulin (C57BL/KsJ db/db mouse; [5]): 39.5 ± 37.5; Reduction rate of plasma triglyceride (C57BL/KsJ db/db mouse; [5]): 48.3 ± 6.9; Reduction rate of plasma glucose (C57BL/KsJ db/db mouse; [6]): 42.4 ± 11.4; Reduction rate of plasma insulin (C57BL/KsJ db/db mouse; [6]): 43.8 ± 26.3; Reduction rate of plasma triglyceride (C57BL/KsJ db/db mouse; [6]): 44.6 ± 9.7; Plasma glucose reducing action (ED25) (C57BL/KsJ db/db mouse; listed as Example 5 (4)): 0.5 mg/kg
7 | CCc1ccc(CCOc2ccc(CC3SC(=O)NC3=O)cc2)nc1 (stereo not shown) [Pioglitazone hydrochloride, reference compound] | 13.4 ± 18.3 | −24.7 ± 119.3 | 9.4 ± 15.9 | 22.3 ± 22.8 | −18.7 ± 52.5 | 25.4 ± 16.9 | 45.2 ± 21.2 | 13.9 ± 22.7 | 38.2 ± 8.1 | 8.3 | –

— patent US7109242B2, “Carboxylic compound and medicine comprising the same” (Kowa Company, Ltd., priority 2003, dated 2006)
